# Measurements published in patent publication US6774131B1, “Remedies for endothelin-induced diseases” (Yamanouchi Pharmaceutical Co., Ltd., priority 2000, dated 2004).
# How the values were obtained:
# [1] = test system: MC3T3-E1, mouse osteoblast-like cells; experiment: ET-1-induced increase of intracellular Ca2+ concentration in MC3T3-E1; format: cell-based
# Experimental: (§1) MC3T3-E1, mouse osteoblast-like cells, was used in these experiments (Journal of Cell Biology,96(1),191-198,1983).
# The cell was cultured in a cell disk (of a 13.5-mm diameter) until the cell reached confluency; thereafter, the cell was then cultured in the absence of serum, for about 12 hours or longer and used for this experiment. Fura2-AM (4 μM) was added to the cell in the Hank's balanced salt solution (HBSS) (140 mM NaCl, 4 MM KCl, 1 mM K2HPO4, 1 mM MgCl2, 1 mM CaCl2, 10 mM glucose and 20 mM Hepes, pH-7.4) and incubated at 37° C. for one hour. The cell disk was fixed in a quartz cell placing therein HBSS; the quartz cell was fixed in an intracellular Ca^2+ assay unit (CAF-110). […] Intracellular Ca^2+ concentration was estimated by measuring and detecting the ratio of fluorescence intensities at 500 nm with excitation wave lengths of 340/380 nm and calculating intracellular Ca^2+ concentration using designated formula (J.Biol.Chem.,260,3440-3450,1985). […]
# (§2) The results are shown in the form of mean±standard error. The significant difference between groups was analyzed by one-way analysis of variance, to calculate the p-values by the Dunnett's multiple range test. […] At each experiment, the EC50 value of ET-1 and the IC50 value of the Compound 1 were calculated by the Logistic regression analysis.
# [2] = test system: mouse formalin-induced pain model; experiment: ET-1-induced enhancement of pain responses in mouse formalin-induced pain model; format: in vivo
# Experimental: Suppressive effects of Compound 1 to the enhancement of pain responses induced by ET-1 in mouse formalin-induced pain model
# Male ICR mice (age of 5 weeks; Nippon SLC) were used in these experiments.
# The mice were placed in a cage for observation, to acclimate the mice to the environment for 5 minutes or longer; then, physiological saline of 20 μl was subcutaneously injected to the mouse left hind paws, while 0.7% formalin-containing physiological saline of 20 μl was subcutaneously injected to the mouse right hind paws. The duration of licking and biting reactions emerging immediately thereafter was counted every 5 minutes, for 40 minutes. After the termination of the counting, both the ankles were amputated and weighed. The reaction time immediately after formalin injection to 5 minutes later was defined as first phase; and the 30 minutes reaction time from 10 minutes after injection until 40 minutes later was defined in total as second phase, which were used as the indices of pain. Additionally, the edema calculated on the basis of the right foot weight minus the left foot weight (in mg) was used as an index of inflammatory reaction. Additionally, in all cases the licking reaction time was counted between 10:00 and 18:00.
# 0.7% formalin-containing physiological saline containing ET-1 at doses of 3, 10 and 30 pmol/paw was subcutaneously injected in the right hind paws to examine the action of ET-1 to enhance formalin-induced pain and edema.
# Compound 1 (0.3 to 3 mg/kg) was orally administered at a dose of 1 ml/100 g. Sixty minutes after oral administration, 0.7% formalin-containing physiological saline containing ET-1 (10 pmol/paw) was subcutaneously injected in the right hind paws, to examine the effect of the Compound 1 on the ET-1-induced enhancements of formalin-induced pain and edema.
# The results are shown in the form of mean±standard error. The significant difference between two groups was calculated the p-value by Students unpaired t-test. The significant difference between groups was analyzed by one-way analysis of variance, to calculate the p-values by the Dunnett's multiple range test. The p-value below 5% was defined as statistically significant.
# [3] = test system: MC3T3-E1, mouse osteoblast-like cells; experiment: ET-1-induced cell number increase in MC3T3-E1 (cell counting kit, WST-1); format: cell-based
# Experimental: as §1
# Cell number was counted by using a reagent solution of a cell counting kit (DOJINDO). The cells were seeded at a density of 1.0×10^4 cells/well in a 24-well plate using 0.5% FCS culture medium and cultured for one day. Subsequently, vehicle or ET-1 was added to the plate and cultured for 72 hours. Continuously, a reagent solution was added at 100 μl/well to the culture and incubated at 37° C. for 3 hours. After this reaction, 200-μl portions were transferred from the individual wells of the 24-well plate to a 96-well plate, to measure the absorbance (at a wave length of 405 nm and a reference wave length of 650 nm) with a plate reader. As a control, the count of a culture to which the vehicle was added was defined 100%, thus the percentage increase of cell number was calculated. […]
# as §2
# [4] = test system: PPC-1, hormone-refractory human prostate cancer cells; experiment: ET-1-induced cell growth (cell number, alamar blue) of PPC-1; format: cell-based; conditions: for Cell growth (%): control = 100
# Experimental: PPC-1, hormone-refractory human prostate cancer cells, was used in these experiments(International Journal of Cancer,44,898-903,1989).
# Cell number was counted by using a reagent solution of a alamar blue. The cells were seeded at 2×10^4 cells/well in a 24-well plate, after adhesion, the culture media were exchanged to culture media with no FCS-added, and further cultured for another 24 hours. Thereafter, vehicle or ET-1 (10^−11 to 10^−6 M) was added, and cultured for 96 hours. The final volume of the culture medium was 500 μl. Alamar blue of 50 μl was added to the culture, and incubated for 4 hours. After reaction, 100 μl portions collected from the individual wells of the 24-well plate were then transferred to a 96-well plate, and measured the absorbance (at a wave length of 405 nm and a reference wave length of 650 nm) with a plate reader. As a control, the count of a culture to which the vehicle was added was defined 100%, thus the percentage increase of cell number was calculated. The inhibitory effect of the compound was examined by adding the Compound 1 to a final concentration of 10^−9 to 10^−5 M, 30 minutes prior to the addition of ET-1 at 10^−7 M.
# At the experiment, the culture medium was exchanged to a culture medium to which ET-1 was contained, 48 hours after stimulation, because the degradation of ET-1 was possible.
# [5] = 0.3, 1 and 3 mg/kg p.o., 60 min before ET-1 10 pmol/paw
compound,measurement,setting,value
"COc1ccccc1Oc1c(NS(=O)(=O)C=Cc2ccccc2)nc(-c2ncccn2)nc1OC.[K] [Compound 1, N-[6-methoxy-5-(2-methoxyphenoxy)-2-(2-pyrimidinyl)-4-pyrimidinyl]-2-phenylethenesulfoneamide•potassium salt]",IC50,[1]; ET-1 10^−8 M,10.2 nM
same,suppression of ET-1-induced enhancement of formalin-induced edema,[2]; [5],significantly suppressed
same,"suppression of ET-1-induced enhancement of formalin-induced pain, first phase",[2]; [5],significantly suppressed
same,"suppression of ET-1-induced enhancement of formalin-induced pain, second phase",[2]; [5],significantly suppressed
same,IC50,[3]; ET-1 10^−9 M,9.54 nM
same,Cell growth (%),"[4]; Compound 1 10^−5 M with ET-1 10^−7 M, n = 7",98.1%
same,Cell growth (%),"[4]; Compound 1 10^−6 M with ET-1 10^−7 M, n = 7",99.2%
same,concentration from which ET-1-induced cell growth was inhibited,[4]; ET-1 10^−7 M,≥ 10^−6 M
"ET-1: endothelin; induces pain in humans and experimental animals; used as stimulus of pain, Ca2+ increase and cell growth [reference compound]",EC50,[1]; ET-1 10^−12 to 10^−6 M,7.39 nM
same,ET-1-induced enhancement of formalin-induced edema,"[2]; ET-1 3, 10 and 30 pmol/paw with 0.7% formalin s.c. in hind paw",significantly enhanced
same,"ET-1-induced enhancement of formalin-induced pain, first phase","[2]; ET-1 3, 10 and 30 pmol/paw with 0.7% formalin s.c. in hind paw, 0-5 min",significantly enhanced
same,"ET-1-induced enhancement of formalin-induced pain, second phase","[2]; ET-1 3, 10 and 30 pmol/paw with 0.7% formalin s.c. in hind paw, 10-40 min",significantly enhanced
same,EC50,"[3]; ET-1 10^−12 to 10^−6 M, WST-1",0.022 nM
same,concentration from which ET-1-induced cell growth was observed,[4],≥ 10^−11 M
same,Cell growth (%),"[4]; ET-1 10^−7 M, 96 h, n = 7 (Table 2)",119.3%
same,Cell growth (%),"[4]; ET-1 10^−7 M, Compound 1 0 (Table 3), n = 7",110.5%
same,Cell growth (%),"[4]; ET-1 10^−8 M, 96 h, n = 7",115.3%
same,Cell growth (%),"[4]; ET-1 10^−9 M, 96 h, n = 7",124.0%
same,Cell growth (%),"[4]; ET-1 10^−10 M, 96 h, n = 7",122.3%
same,Cell growth (%),"[4]; ET-1 10^−11 M, 96 h, n = 7",119.6%
